This note sets out measurements from patent US9096598B2 (Merck Sharp & Dohme Corp., priority 2011, dated 2015).

In one assay the target is T1, JAK2 (Homo sapiens, UniProt O60674).
T1 construct: recombinant purified GST-tagged catalytic domain for each enzyme; purchased Invitrogen M4290
Description: Jak Biochemical HTRF Assay (JAK2). Conditions: recombinant purified GST-tagged catalytic domain, [ATP] 8.5 μM, values given as range classes. The method, boiled down:
(§1)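 GST-tagged recombinant catalytic domain and biotinylated peptide substrate were preincubated with compound for 30 min at room temperature in kinase buffer with 2 mM DTT and 0.05% BSA. ATP then started a 120 min reaction. Phosphopeptide was detected by HTRF (Eu-pY20/streptavidin-Dylight 650, 665/615 nm ratio), and IC50 came from a 4-parameter fit of percent inhibition.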

In a further assay the target is T2, JAK3 (Homo sapiens, UniProt P52333).
T2 construct: recombinant purified GST-tagged catalytic domain for each enzyme; purchased Invitrogen M4290
Briefly: Jak Biochemical HTRF Assay (JAK3). Conditions: recombinant purified GST-tagged catalytic domain, [ATP] 2.9 μM, values given as range classes. In short, it runs like this: as §1
For orientation: TR-FRET usually uses a lanthanide donor and a delayed reading to cut background.

Each structure is given as a SMILES string.

T2 sequence (P52333 822-1111 limits assumed): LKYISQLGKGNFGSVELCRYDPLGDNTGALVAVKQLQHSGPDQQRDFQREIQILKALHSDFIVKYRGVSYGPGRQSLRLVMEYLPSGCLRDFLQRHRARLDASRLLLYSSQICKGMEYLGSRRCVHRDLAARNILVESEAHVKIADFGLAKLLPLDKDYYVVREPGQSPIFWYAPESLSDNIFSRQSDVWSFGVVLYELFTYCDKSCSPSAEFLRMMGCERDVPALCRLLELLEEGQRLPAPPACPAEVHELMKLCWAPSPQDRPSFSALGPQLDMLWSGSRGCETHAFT
T1 sequence (O60674 849-1124 limits assumed): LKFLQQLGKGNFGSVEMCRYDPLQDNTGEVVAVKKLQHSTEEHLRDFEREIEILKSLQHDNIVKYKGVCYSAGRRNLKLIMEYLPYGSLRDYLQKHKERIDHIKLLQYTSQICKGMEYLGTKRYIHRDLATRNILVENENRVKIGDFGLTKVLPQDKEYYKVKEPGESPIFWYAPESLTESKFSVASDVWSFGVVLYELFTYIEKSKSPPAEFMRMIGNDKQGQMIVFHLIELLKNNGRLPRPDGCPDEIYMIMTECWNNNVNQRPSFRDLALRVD

One may read the IC50 as the concentration needed to halve the response being measured. Regarding `CC(C)[C@@H](Nc1cncc(-c2c[nH]c3ncc(COCCN4CCCC4)cc23)c1)C(=O)NCC(F)(F)F` [Example 9-1, (R)-3-methyl-2-(5-(5-((2-(pyrrolidin-1-yl)ethoxy)methyl)-1H-pyrrolo[2,3-b]pyridin-3-yl)pyridin-3-ylamino)-N-(2,2,2-trifluoroethyl)butanamide], the IC50 on JAK2 and at JAK3 was 10 to 500 nM throughout.
Take `CC(C)[C@@H](Nc1cncc(-c2c[nH]c3ncc(COC(C)(C)C)cc23)c1)C(=O)NCC(F)(F)F` [Example 9-2, N~2~-{5-[5-(tert-butoxymethyl)-1H-pyrrolo[2,3-b]pyridin-3-yl]pyridin-3-yl}-N-(2,2,2-trifluoroethyl)-D-valinamide]: the IC50 on JAK2 and on JAK3 was 10 to 500 nM in each case.
Consider `CC(C)[C@@H](Nc1cncc(-c2c[nH]c3ncc(COCCN4CCN(C(=O)OC(C)(C)C)CC4)cc23)c1)C(=O)NCC(F)(F)F` [Example 9-3, tert-butyl 4-[2-({3-[5-({(1R)-2-methyl-1-[(2,2,2-trifluoroethyl)carbamoyl]propyl}amino)pyridin-3-yl]-1H-pyrrolo[2,3-b]pyridin-5-yl}methoxy)ethyl]piper-azine-1-carboxylate], for which the IC50 was 10 to 500 nM at JAK2 and not above 10 nM on JAK3.
The like results for `CC(C)[C@@H](Nc1cncc(-c2c[nH]c3ncc(COCCN4CCOCC4)cc23)c1)C(=O)NCC(F)(F)F` [Example 9-4, N~2~-(5-{5-[(2-morpholin-4-ylethoxy)methyl]-1H-pyrrolo[2,3-b]pyridin-3-yl}pyridin-3-yl)-N-(2,2,2-trifluoroethyl)-D-valinamide] were, in that order, 10 to 500 nM and not above 10 nM.
The like results for `C=CCOCc1cnc2[nH]cc(-c3cncc(N[C@@H](C(=O)NCC(F)(F)F)C(C)C)c3)c2c1` [Example 9-5, N~2~-(5-{5-[(prop-2-en-1-yloxy)methyl]-1H-pyrrolo[2,3-b]pyridin-3-yl}pyridin-3-yl)-N-(2,2,2-trifluoroethyl)-D-valinamide] were, in that order, 10 to 500 nM and not above 10 nM.
The like results for `CC(C)[C@@H](Nc1cncc(-c2c[nH]c3ncc(COC4CCN(C(=O)OC(C)(C)C)CC4)cc23)c1)C(=O)NCC(F)(F)F` [Example 9-6, tert-butyl 4-({3-[5-({(1R)-2-methyl-1-[(2,2,2-trifluoroethy)carbamoyl]propyl}amino)pyridin-3-yl]-1H-pyrrolo[2,3-b]pyridin-5-yl}methoxy)piperidine-1-carboxylate] were, in that order, 10 to 500 nM and not above 10 nM.
On to `CC(C)[C@@H](Nc1cncc(-c2c[nH]c3ncc(CN4CCCC4)cc23)c1)C(=O)NCC(F)(F)F` [Example 9-7, N~2~-{5-[5-(pyrrolidin-1-ylmethyl)-1H-pyrrolo[2,3-b]pyridin-3-yl]pyridin-3-yl}-N-(2,2,2-trifluoroethyl)-D-valinamide], for which the IC50 on JAK2 and on JAK3 was 10 to 500 nM in each case.
As to `COCc1cnc2[nH]cc(-c3nncc(N[C@@H](C(=O)NCC(F)(F)F)C(C)C)n3)c2c1` [Example 9-8, N~2~-{3-[5-(methoxymethyl)-1H-pyrrolo[2,3-b]pyridin-3-yl]-1,2,4-triazin-5-yl}-N-(2,2,2-trifluoroethyl)-D-valinamide], the IC50 at JAK2 and on JAK3 was 10 to 500 nM each time.
On to `COCc1cnc2[nH]cc(-c3cncc(N[C@@H](C(=O)NCC(F)(F)F)C(C)C)c3)c2c1` [Example 9-9, N~2~-{5-[5-(methoxymethyl)-1H-pyrrolo[2,3-b]pyridin-3-yl]pyridin-3-yl}-N-(2,2,2-trifluoroethyl)-D-valinamide], for which the values for the IC50 at JAK2 and on JAK3 were 10 to 500 nM and not above 10 nM, respectively.
In the case of `CC(C)C(Nc1cncc(-c2c[nH]c3ncc(CNC(=O)C4CCCC4)cc23)c1)C(=O)NCC(F)(F)F` (stereo not shown) [Example 10-1, N-((3-(5-(3-methyl-1-oxo-1-(2,2,2-trifluoroethylamino)butan-2-ylamino)pyridin-3-yl)-1H-pyrrolo[2,3-b]pyridin-5-yl)methyl)cyclopentanecarboxamide], the values for the IC50 on JAK2 and at JAK3 were more than 500 nM and 10 to 500 nM, respectively.
The like results for `CCC(=O)NCc1cnc2[nH]cc(-c3cncc(N[C@H](C(=O)NCC(F)(F)F)C(C)C)c3)c2c1` [Example 10-2, N~2~-(5-{5-[(propanoylamino)methyl]-1H-pyrrolo[2,3-b]pyridin-3-yl}pyridin-3-yl)-N-(2,2,2-trifluoroethyl)valinamide] were, in that order, more than 500 nM and 10 to 500 nM.
With `CC(C)C(Nc1cncc(-c2c[nH]c3ncc(CNC(=O)C4CCCCC4)cc23)c1)C(=O)NCC(F)(F)F` (stereo not shown) [Example 10-3, N-({3-[5-({2-methyl-1-[(2,2,2-trifluoroethyl)carbamoyl]prop-yl}amino)pyridin-3-yl]-1H-pyrrolo[2,3-b]pyridin-5-yl}methyl)cyclohexanecar-boxamide], the IC50 was more than 500 nM at JAK2 and 10 to 500 nM on JAK3.
On to `C/C=C/C(=O)NCc1cnc2[nH]cc(-c3cncc(N[C@H](C(=O)NCC(F)(F)F)C(C)C)c3)c2c1` [Example 10-4, N~2~-[5-(5-{[(2E)-but-2-enoylamino]methyl}-1H-pyrrolo[2,3-b]pyridin-3-yl)pyridin-3-yl]-N-(2,2,2-trifluoroethyl)valinamide], for which the IC50 was 10 to 500 nM on JAK2 and not above 10 nM on JAK3.
Turning to `CC(=O)NCc1cnc2[nH]cc(-c3cncc(N[C@H](C(=O)NCC(F)(F)F)C(C)C)c3)c2c1` [Example 10-5, N~2~-(5-{5-[(acetylamino)methyl]-1H-pyrrolo[2,3-b]pyridin-3-yl}pyridin-3-yl)-N-(2,2,2-trifluoroethyl)valinamide], the IC50 at JAK2 was more than 500 nM; at JAK3, 10 to 500 nM.
The like results for `CC(C)[C@H](Nc1cncc(-c2c[nH]c3ncc(CNC(=O)C4CC4)cc23)c1)C(=O)NCC(F)(F)F` [Example 10-6, N~2~-[5-(5-{[(cyclopropylcarbonyl)amino]methyl}-1H-pyrrolo[2,3-b]pyridin-3-yl)pyridin-3-yl]-N-(2,2,2-trifluoroethyl)valinamide] were, in that order, 10 to 500 nM and not above 10 nM.
The like results for `Cc1ncoc1C(=O)NCc1cnc2[nH]cc(-c3cncc(N[C@H](C(=O)NCC(F)(F)F)C(C)C)c3)c2c1` [Example 10-7, N~2~-{5-[5-({[(4-methyl-1,3-oxazol-5-yl)carbonyl]amino}methyl)-1H-pyrrolo[2,3-b]pyridin-3-yl]pyridin-3-yl}-N-(2,2,2-trifluoroethyl)valinamide] were, in that order, more than 500 nM and 10 to 500 nM.
On to `CC(C)=CC(=O)NCc1cnc2[nH]cc(-c3cncc(N[C@H](C(=O)NCC(F)(F)F)C(C)C)c3)c2c1` [Example 10-8, N~2~-[5-(5-{[(3-methylbut-2-enoyl)amino]methyl}-1H-pyrrolo[2,3-b]pyridin-3-yl)pyridin-3-yl]-N-(2,2,2-trifluoroethyl)valinamide], for which the IC50 on JAK2 and at JAK3 was 10 to 500 nM each time.
With `CCCC(=O)NCc1cnc2[nH]cc(-c3cncc(N[C@H](C(=O)NCC(F)(F)F)C(C)C)c3)c2c1` [Example 10-9, N~2~-(5-{5-[(butanoylamino)methyl]-1H-pyrrolo[2,3-b]pyridin-3-yl}pyridin-3-yl)-N-(2,2,2-trifluoroethyl)valinamide], the IC50 was more than 500 nM on JAK2 and 10 to 500 nM at JAK3.
The like results for `CC(C)[C@H](Nc1cncc(-c2c[nH]c3ncc(CNC(=O)CC(F)(F)F)cc23)c1)C(=O)NCC(F)(F)F` [Example 10-10, N-(2,2,2-trifluoroethyl)-N~2~-[5-(5-{[(3,3,3-trifluoropropanoyl)amino]methyl}-1H-pyrrolo[2,3-b]pyridin-3-yl)pyridin-3-yl]valinamide] were, in that order, more than 500 nM and 10 to 500 nM.
On to `CC(C)[C@H](Nc1cncc(-c2c[nH]c3ncc(CNC(=O)N4CCCC4)cc23)c1)C(=O)NCC(F)(F)F` [Example 10-11, N~2~-[5-(5-{[(pyrrolidin-1-ylcarbonyl)amino]methyl}-1H-pyrrolo[2,3-b]pyridin-3-yl)pyridin-3-yl]-N-(2,2,2-trifluoroethyl)valinamide], for which the IC50 at JAK2 is more than 500 nM; at JAK3, 10 to 500 nM.
